Values joined by “and” are separate entries in the source; they are usually repeats but may differ in a detail not shown here. Identical values can stand only once.

In series [1] the target is T1, recombinant human PSMA (Homo sapiens, UniProt Q04609).
T1 construct: purchased R&D systems, Abingdon, UK
Briefly: fluorescence-based NAALADase enzymatic assay. The format is biochemical. As to conditions: for IC50: rhPSMA, NAAG substrate, three assays in triplicate, read-out: IC50 (affinity to PSMA). How it is done: The assay buffer (50 mM HEPES, 0.1 M NaCl, pH 7.5) was used to dilute the recombinant human PSMA (rhPSMA, R&D systems, Abingdon, UK) to 0.4 µg/mL, as well as the enzymatic substrate Ac-Asp-Glu (NAAG) (40 μM in assay buffer). 3p-C-NETA-ePSMA-16 and an internal reference, PSMA-617, were dissolved in assay buffer at concentrations ranging from 10^−5 to 10^−12 M. 6.25 µL of the compound were incubated with 6.25 µL of the substrate to which 12.5 µL of rhPSMA solution was added, and incubated for 1 h at 37 °C in 384-well black polystyrene microplates. Next, 25 µL of a working solution of the Amplex Red glutamic acid kit (ThermoFisher, Bleiswijk, The Netherlands) was added and incubated at 37 °C for 30 min to measure glutamate released. A HIDEX Sense Optical System (HIDEX, Goedereede, The Netherlands) was used to measure the fluorescence, with excitation set at 535 nm and emission at 590 nm. Assays were performed in triplicate and as three separate replicates. Data were normalized and analyzed using a one-site total binding regression algorithm from GraphPad Prism 9 (GraphPad Software, Boston, MA, USA).

Series [2] in a line: Storage stability of the unlabeled compound. It counts as physicochemical.
Series [3] can be described thus: Transchelation/challenge study with excess EDTA. As to conditions: 37 °C, 24 h. It counts as physicochemical. How it is done:
Samples were analyzed by iTLC at 1, 4, and 24 h after incubation to determine the percentage (%) of intact radioligand [16].

A short description of series [4]: LogD7.4 shake-flask method. The format is physicochemical. To be noted: n-octanol/PBS pH 7.4, n = 3. How it is done: The distribution coefficient (LogD7.4) was determined by a shake-flask method in triplicate. […] The mixture was vortexed vigorously and then centrifuged at 5000× g for 15 min for phase separation. Samples of the two phases (3 × 10 μL) were taken out and measured using a PerkinElmer Wizard 2 γ-counter. LogD7.4 values were calculated using the following equation: LogD7.4 = log [(counts in octanol phase)/(counts in aqueous phase)] [34].

Series [5] concerns LS174T PSMA+ cells. The experiment in a line: Cell uptake and internalization assay. It counts as cell-based, human. How it is done:
LS174T human colon carcinoma cells transfected with human PSMA were provided by Dr. Sandra Heskamp (Radboudumc, Nijmegen, The Netherlands). RPMI-1640 media supplemented with 2 mM glutamine, 10% fetal bovine serum (FBS), and 0.3 mg/mL G418 (Geneticin, Sigma Aldrich, Burlington, MA, USA) was used to culture the cells. PC-3-Pip and PC-3-Flu cells were received from Prof. Martin G. Pomper (John Hopkins University, Baltimore, MD, USA).
LS174T cells were seeded (1.2 × 10^6 cells/well) and cultured to confluency 24 h prior to the experiments. […] Blocking experiments were also performed using a 50-fold excess of either PSMA-617 or 3p-C-NETA-ePSMA-16. The media was removed, and wells were then rinsed twice with PBS at rt. To each well, we added 2 mL of the radioactive compound, which was incubated at 37 °C for 2 h. Internalization assay: the media containing the radioactive compound was removed from each well, followed by two washes with 1 mL cold PBS. Glycine buffer (1 mL, 50 mM glycine, 100 mM NaCl, pH 2.8) was immediately added to the wells prior to incubation at rt for 10 min. The glycine wash and an additional wash were collected into counting tubes (membrane-bound fraction). NaOH (1 mL, 1 M) was added to each well for 15 min at rt. The internalized fraction (lysate) and an additional NaOH wash were collected in the same tubes. Data were normalized to the added dose per 1,000,000 cells (AD/10^6 cells) and represented as counts per minute (CPM).

In series [6] the test system is PSMA+ LS174T tumor xenografts. The experiment in a line: Ex vivo biodistribution in LS174T tumor-bearing BALB/c nude mice. Further details: species or system mouse. How it is done: (§1) We housed 8–10 weeks old male BALB/c nude mice (BALB/cAnN Rj-Nude; Janvier Labs, Le Genest-Saint-Isle, France) in individually ventilated cages (Blue line IVC, 2 mice per cage). Sterile standard conditions were employed with the presence of cage enrichment and unlimited access to water and animal chow (Sniff GmbH). Acclimatization was realized 1 week before the beginning of the experiments. Mice were subcutaneously inoculated in their right flank with LS174T cells (4.0 × 10^6) diluted in 100 µL of cell suspension. Tumors grew to an average volume of 217.8 ± 9.4 mm^3 in 7 days (average weight of 217 ± 14.4 mg), and mice were grouped non-blinded to afford homogenous tumor size distribution intra-groups. […] All experiments were in accordance with the guidelines of the Revised Dutch Act on Animal Experimentation (WOD).
Mice (n = 4/group) were euthanized via cervical dislocation at 1, 4, and 24 h post-injection (p.i.). A block group (n = 4) containing a 50-fold excess of 3p-C-NETA-ePSMA-16 was also included in the study (euthanized at 4 h p.i.). Tissues were collected in tubes, weighted, and counted in the gamma counter.

Series [7] deals with PSMA+ LS174T tumor xenografts. Briefly: SPECT/CT imaging in LS174T tumor-bearing mice. The format is in vivo, mouse. To be noted: 1 h p.i. As to the method:
as §1
At 1 and 24 h p.i., mice were placed under 2% isoflurane/O2 anesthesia on a heated bed and imaged in a dedicated small-animal PET/SPECT/CT scanner (VECTor5CT scanner, MILabs B.V., Utrecht, The Netherlands) equipped with a high sensitivity pinhole collimator (XXUHS-M, 3.00 mm pinhole diameter). […] The CT and registered attenuation-corrected SPECT images were analyzed using IMALYTICS Preclinical 3.0 (Gremse-IT GmbH, Aachen, Germany).

For series [8] the following is noted: radiolabeled with 88Y, 177Lu and 205/206Bi; cited from earlier work.
[9] abbreviates: 4 h p.i., block (50-fold excess unlabeled).

T1 sequence (Q04609 whole entry): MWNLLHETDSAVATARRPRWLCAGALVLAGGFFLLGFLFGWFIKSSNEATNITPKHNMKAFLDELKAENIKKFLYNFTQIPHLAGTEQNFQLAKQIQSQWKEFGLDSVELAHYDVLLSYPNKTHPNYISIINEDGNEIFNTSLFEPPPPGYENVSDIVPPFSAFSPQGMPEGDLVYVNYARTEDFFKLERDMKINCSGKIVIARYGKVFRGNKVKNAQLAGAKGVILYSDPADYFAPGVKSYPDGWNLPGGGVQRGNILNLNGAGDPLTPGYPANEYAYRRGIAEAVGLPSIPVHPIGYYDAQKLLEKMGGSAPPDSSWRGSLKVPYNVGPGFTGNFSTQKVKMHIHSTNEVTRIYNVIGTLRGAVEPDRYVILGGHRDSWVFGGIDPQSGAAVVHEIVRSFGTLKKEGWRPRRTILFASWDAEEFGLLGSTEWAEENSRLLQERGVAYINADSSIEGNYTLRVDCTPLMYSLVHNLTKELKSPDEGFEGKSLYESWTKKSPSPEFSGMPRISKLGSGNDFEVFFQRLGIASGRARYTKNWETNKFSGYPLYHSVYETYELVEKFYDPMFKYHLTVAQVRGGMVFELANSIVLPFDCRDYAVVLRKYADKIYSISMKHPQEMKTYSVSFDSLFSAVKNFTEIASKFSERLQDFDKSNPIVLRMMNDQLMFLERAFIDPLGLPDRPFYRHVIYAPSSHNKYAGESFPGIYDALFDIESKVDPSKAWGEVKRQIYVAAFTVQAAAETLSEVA

For orientation: IC50 means the midpoint of a concentration-inhibition curve. Regarding `CC(C)CC(NC(=O)C(Cc1ccccc1)NC(=O)C(CC(=O)O)NC(=O)CCC(=O)Nc1ccc(CCCC(CN2CCN(CC(=O)O)CCN(CC(=O)O)CC2)N(CC(=O)O)CC(=O)O)cc1)C(O)CC(=O)NCCCCCC(=O)NCCCCC(NC(=O)NC(CCC(=O)O)C(=O)O)C(=O)O` (stereo not drawn) [3p-C-NETA-ePSMA-16, EuK(Ahx-Sta-Phe-Asp-3p-C-NETA)], in series [1], the IC50 stood at 4.61 ± 1.33 nM. In series [1] (vs PSMA-617), the “IC50 relative to reference PSMA-617 (fold higher IC50 / lower affinity)” value amounted to 5 fold. For the same compound, the storage stability in series [2] (stored as a lyophilized powder) was above 1 year; in series [2] (stored as an aqueous solution), above 6 months.

The logD is the decadic logarithm of the distribution of all forms, ionised or not, between an organic phase and buffer at a given pH. A high value points to a more lipophilic compound. On to `CC(C)C[C@H](NC(=O)[C@H](Cc1ccccc1)NC(=O)[C@H](CC(=O)O)NC(=O)CCC(=O)Nc1ccc(CCCC(CN2CCN(CC(=O)[O-])CCN(CC(=O)[O-])CC2)N(CC(=O)[O-])CC(=O)O)cc1)[C@@H](O)CC(=O)NCCCCCC(=O)NCCCC[C@H](NC(=O)N[C@@H](CCC(=O)O)C(=O)O)C(=O)O.[111In+3]` (some centres unmarked) [[^111In]In-3p-C-NETA-ePSMA-16], for which the “intact radioligand in transchelation challenge” value in series [3] was 93.2 ± 0.7% and > 90%. In series [4], this compound yielded a logD of −2.95 ± 0.19. The compound also showed a total cell uptake in series [5] of 1.41 ± 0.20 % ID/10^6 cells. In series [5] (10^−9 M, 2 h, 37 °C), this compound yielded an internalized fraction of 0.50 ± 0.16 % AD/10^6 cells and a membrane-bound fraction of 0.90 ± 0.05 % AD/10^6 cells. Moreover, in series [5] (50-fold excess of unlabeled compound), the “cell uptake in the blocked group” value was “no uptake”. Further, in series [6] (1 h p.i.), the Blood uptake amounted to 0.26 ± 0.19 % ID/g, the Bone uptake was 0.20 ± 0.05 % ID/g, the Heart uptake is 0.15 ± 0.05 % ID/g and the Intestines uptake was found to be 0.59 ± 0.13 % ID/g. In series [6] (1 h p.i.), the Kidney uptake is reported as 26.70 ± 2.12 % ID/g, the Liver uptake worked out at 0.20 ± 0.03 % ID/g, the Lung uptake is 0.45 ± 0.10 % ID/g and the Muscle uptake was determined as 0.13 ± 0.09 % ID/g. In series [6] (1 h p.i.), the Pancreas uptake was determined as 0.23 ± 0.05 % ID/g, the Prostate uptake was determined as 1.08 ± 0.41 % ID/g, the Skin uptake came out at 0.46 ± 0.15 % ID/g and the Spleen uptake is reported as 1.28 ± 0.49 % ID/g. In addition, in series [6] (1 h p.i.), the Stomach uptake is given as 0.31 ± 0.21 % ID/g and the Tumor uptake stood at 1.62 ± 0.55 % ID/g. In series [6] (4 h p.i.), this compound had a Blood uptake of 0.01 ± 0.01 % ID/g, a Bone uptake of 0.03 ± 0.00 % ID/g, a Heart uptake of 0.02 ± 0.00 % ID/g and an Intestines uptake of 0.60 ± 0.28 % ID/g. In series [6] (4 h p.i.), this compound displayed a Kidney uptake of 11.62 ± 0.62 % ID/g, a Liver uptake of 0.07 ± 0.01 % ID/g, a Lung uptake of 0.06 ± 0.01 % ID/g and a Muscle uptake of 0.04 ± 0.00 % ID/g. In series [6] (4 h p.i.), this compound returned a Pancreas uptake of 0.03 ± 0.00 % ID/g, a Prostate uptake of 0.12 ± 0.07 % ID/g, a Skin uptake of 0.24 ± 0.15 % ID/g and a Spleen uptake of 0.12 ± 0.01 % ID/g. In series [6] (4 h p.i.), this compound displayed a Stomach uptake of 0.05 ± 0.02 % ID/g and a Tumor uptake of 0.89 ± 0.58 % ID/g. Also, in series [6] (setting [9]), the Blood uptake is recorded as 0.01 ± 0.00 % ID/g, the Bone uptake is listed as 0.03 ± 0.01 % ID/g, the Heart uptake turned out to be 0.02 ± 0.00 % ID/g and the Intestines uptake stood at 0.68 ± 0.02 % ID/g. Besides, in series [6] (setting [9]), the Kidney uptake was 9.53 ± 1.66 % ID/g, the Liver uptake was determined as 0.07 ± 0.01 % ID/g, the Lung uptake is listed as 0.05 ± 0.01 % ID/g and the Muscle uptake was 0.02 ± 0.01 % ID/g. In addition, in series [6] (setting [9]), the Pancreas uptake is listed as 0.02 ± 0.01 % ID/g, the Prostate uptake is 0.07 ± 0.02 % ID/g, the Skin uptake is 0.13 ± 0.02 % ID/g and the Spleen uptake is on record as 0.05 ± 0.01 % ID/g. Also, in series [6] (setting [9]), the Stomach uptake came out at 0.15 ± 0.10 % ID/g and the Tumor uptake was found to be 0.12 ± 0.04 % ID/g. In series [6] (24 h p.i.), the Bone uptake is given as 0.02 ± 0.00 % ID/g, the Heart uptake is given as 0.01 ± 0.00 % ID/g, the Intestines uptake is listed as 0.04 ± 0.02 % ID/g and the Kidney uptake was 4.27 ± 0.87 % ID/g. Moreover, in series [6] (24 h p.i.), the Liver uptake was found to be 0.03 ± 0.00 % ID/g, the Lung uptake was 0.02 ± 0.00 % ID/g, the Muscle uptake worked out at 0.01 ± 0.00 % ID/g and the Pancreas uptake turned out to be 0.01 ± 0.00 % ID/g. In series [6] (24 h p.i.), this compound gave a Prostate uptake of 0.04 ± 0.01 % ID/g, a Skin uptake of 0.10 ± 0.06 % ID/g, a Spleen uptake of 0.03 ± 0.00 % ID/g and a Stomach uptake of 0.01 ± 0.00 % ID/g. In series [6] (24 h p.i.), the Tumor uptake was determined as 0.12 ± 0.02 % ID/g. In addition, the “tumor signal in SPECT/CT” value in series [7] was “faint signal”.

For the compound `O=C(O)CN1CCN(CC(=O)O)CCN(CC(CCCc2ccc([N+](=O)[O-])cc2)N(CC(=O)O)CC(=O)O)CC1` (centres unmarked) [3p-C-NETA], in series [8], the “stability in serum in vitro” value is reported as “highly stable in serum in vitro for up to 11 days”.

In the case of `O=C(O)CC[C@H](NC(=O)N[C@@H](CCCCNC(=O)[C@H](Cc1ccc2ccccc2c1)NC(=O)[C@H]1CC[C@H](CNC(=O)CN2CCN(CC(=O)O)CCN(CC(=O)O)CCN(CC(=O)O)CC2)CC1)C(=O)O)C(=O)O` [PSMA-617, reference compound], in series [1], the IC50 worked out at 0.78 ± 0.3 nM.

(Values after PMC10301001, “Radiochemical and Biological Evaluation of 3p-C-NETA-ePSMA-16, a Promising PSMA-Targeting Agent for Radiotheranostics” (Pharmaceuticals, 2023).)
